The text below walks through data of US12071430B2 (The Johns Hopkins University, priority 2011, dated 2024).

Entries after “also recorded” stand apart in the source; their conditions may differ. Read-outs that look alike come from different tables or passages of the source.

One data set deals with HUVEC. As to the kind of experiment: HUVEC proliferation, [3H]-thymidine incorporation assay. The format is cell-based, human. The conditions noted are these: for Proliferation (IC50/IC50 Itra): HUVEC IC50 relative to itraconazole; for IC50: [3H]-thymidine incorporation, unit inferred, values in μM, read-out: Proliferation IC50. On the procedure: The inhibitory effects of the new analogs on HUVEC proliferation were measured using a [3H]-thymidine incorporation assay. The log P values, used as an indicator of lipophilicity, were calculated using ALOGPS2.1 software. Aqueous solubility is a key physiochemical property relevant for oral absorption. We determined the solubility of each analog in 0.001 N HCl (pH=3), which represents the acidic human gastric fluid.
HUVEC Culture and Proliferation Assays. HUVEC (Lonza) were grown in EGM-2 bullet kit media (Lonza) and used at passage eight or lower. The H thymidine incorporation assays were conducted as previously described. Briefly, cells were seeded on 96-well plate at a concentration of 2000 cells/well and allowed to settle overnight. Drugs were added to each well in triplicate. After 24 hours, cells were treated with 1 μCi of [3H] thymidine for 6 h. Then cells were harvested and transferred to filtermats. The scintillation were counted and IC50 were determined using Prism software (version 6.0).
A general note: Dividing cells build labelled thymidine or BrdU into new DNA.

A further data set deals with T1, CYP3A4 (Homo sapiens, UniProt P08684).
T1 construct: purchased ThermoFisher P2857; host or cells: baculosomes (insect-cell microsomes, own knowledge)
T1 sequence (P08684 whole entry): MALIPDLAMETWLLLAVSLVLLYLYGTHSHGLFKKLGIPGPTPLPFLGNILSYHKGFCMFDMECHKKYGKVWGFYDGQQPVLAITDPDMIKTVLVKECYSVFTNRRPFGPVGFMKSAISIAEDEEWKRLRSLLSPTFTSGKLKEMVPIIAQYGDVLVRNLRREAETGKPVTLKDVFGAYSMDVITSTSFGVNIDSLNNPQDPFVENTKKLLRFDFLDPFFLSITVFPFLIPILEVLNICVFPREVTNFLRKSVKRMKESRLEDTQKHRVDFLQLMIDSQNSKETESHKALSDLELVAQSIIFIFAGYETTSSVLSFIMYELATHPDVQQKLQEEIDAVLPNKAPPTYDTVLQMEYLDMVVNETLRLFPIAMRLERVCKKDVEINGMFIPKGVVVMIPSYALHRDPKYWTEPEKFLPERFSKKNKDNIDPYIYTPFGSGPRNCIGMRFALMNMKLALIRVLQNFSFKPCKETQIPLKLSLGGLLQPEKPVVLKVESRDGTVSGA
As to the kind of experiment: CYP3A4 enzyme assay (Vivid CYP3A4 Green Screening Kit). The format is in vitro ADME. Particulars: for CYP3A4 Inhibition (compared to intracozanole at 1 um): % enzyme inhibition at 1 uM drug / % enzyme inhibition at 1 uM itraconazole; for CYP3A4 inhibition, in words: dose response or compared with itraconazole; for CYP3A4 inhibition at 1 μM, in words: initial screening at 1 μM. On the procedure:
And CYP3A4 inhibition was initially determined using a cell-free fluorescence-based assay at a final concentration of 1 μM (Table 2).
CYP3A4 enzyme assay. CYP3A4 enzyme activity was tested using Vivid™ CYP3A4 Green Screening Kit (ThermoFisher, #P2857) using the manufacturer's protocol. Briefly, CYP3A4 baculosomes and drugs were incubated 10 min at 37° C. Then Vivid® Substrates were added and the fluorescence (ex/em:485/520) were read every 1 min for 60 minute.

Regarding `CCC(C)n1ncn(-c2ccc(N3CCN(c4ccc(OC[C@@H]5CO[C@@](Cn6ccnc6)(c6ccc(Cl)cc6Cl)O5)cc4)CC3)cc2)c1=O` (stereo partly drawn) [Compound 33, 4-(4-(4-(4-(((2S,4R)-2-((1H-imidazol-1-yl)methyl)-2-(2,4-dichlorophenyl)-1,3-dioxolan-4-yl)methoxy)phenyl)piperazin-1-yl)phenyl)-1-sec-butyl-1H-1,2,4-triazol-5(4H)-one], in the data set with HUVEC (HUVEC), the “HUVEC proliferation / anti-angiogenic potency compared to itraconazole, in words” value was “higher potency”. Moreover, the “Proliferation (IC50/IC50 Itra)” value in the data set on HUVEC is listed as 0.5. Moreover, at CYP3A4, the “CYP3A4 Inhibition (compared to intracozanole at 1 um)” value was 1.18.

As to `CCC(C)n1ncn(-c2ccc(N3CCN(c4ccc(OC[C@@H]5CO[C@@](Cn6cccn6)(c6ccc(Cl)cc6Cl)O5)cc4)CC3)cc2)c1=O` (stereo partly drawn) [Compound 34, 4-(4-(4-(4-(((2S,4R)-2-((1H-pyrazol-1-yl)methyl)-2-(2,4-dichlorophenyl)-1,3-dioxolan-4-yl)methoxy)phenyl)piperazin-1-yl)phenyl)-1-sec-butyl-1H-1,2,4-triazol-5(4H)-one], in the data set with HUVEC, the “Proliferation (IC50/IC50 Itra)” value is recorded as 1.8. Further, the “CYP3A4 Inhibition (compared to intracozanole at 1 um)” value at CYP3A4 is recorded as “No inhibition”.

Take `CCC(C)n1ncn(-c2ccc(N3CCN(c4ccc(OC[C@@H]5CO[C@@](Cn6ccnc6C)(c6ccc(Cl)cc6Cl)O5)cc4)CC3)cc2)c1=O` (stereo partly drawn) [Compound 35, 1-sec-butyl-4-(4-(4-(4-(((2S,4R)-2-(2,4-dichlorophenyl)-2-((2-methyl-1H-imidazol-1-yl)methyl)-1,3-dioxolan-4-yl)methoxy)phenyl)piperazin-1-yl)phenyl)-1H-1,2,4-triazol-5(4H)-one]: the “Proliferation (IC50/IC50 Itra)” value in the data set on HUVEC is 1.0. For the same compound, the “CYP3A4 Inhibition (compared to intracozanole at 1 um)” value on CYP3A4 came out at 0.85.

On to `CCC(C)n1ncn(-c2ccc(N3CCN(c4ccc(OC[C@@H]5CO[C@@](Cn6cnc(C)c6)(c6ccc(Cl)cc6Cl)O5)cc4)CC3)cc2)c1=O` (stereo partly drawn) [Compound 38, 1-sec-butyl-4-(4-(4-(4-(((2S,4R)-2-(2,4-dichlorophenyl)-2-((4-methyl-1H-imidazol-1-yl)methyl)-1,3-dioxolan-4-yl)methoxy)phenyl)piperazin-1-yl)phenyl)-1H-1,2,4-triazol-5(4H)-one], for which, in the data set on HUVEC, the “Proliferation (IC50/IC50 Itra)” value is reported as 0.6. For the same compound, at CYP3A4, the “CYP3A4 Inhibition (compared to intracozanole at 1 um)” value stood at 1.18.

With `CCC(C)n1ncn(-c2ccc(N3CCN(c4ccc(OC[C@@H]5CO[C@@](Cn6cc(C(F)(F)F)nc6C)(c6ccc(Cl)cc6Cl)O5)cc4)CC3)cc2)c1=O` (stereo partly drawn) [Compound 39, 1-(sec-butyl)-4-(4-(4-(4-(((2S,4R)-2-(2,4-dichlorophenyl)-2-((2-methyl-4-(trifluoromethyl)-1H-imidazol-1-yl)methyl)-1,3-dioxolan-4-yl)methoxy)phenyl)piperazin-1-yl)phenyl)-1H-1,2,4-triazol-5(4H)-one], in the data set with HUVEC, the “Proliferation (IC50/IC50 Itra)” value is listed as 2.8. Further, at CYP3A4, the “CYP3A4 Inhibition (compared to intracozanole at 1 um)” value is “No inhibition”; the “CYP3A4 inhibition, in words” value was “eliminated CYP3A4 inhibition”; the “CYP3A4 inhibition at 1 μM, in words” value is listed as “eliminated”.

Regarding `CCC(C)n1ncn(-c2ccc(N3CCN(c4ccc(OC[C@@H]5CO[C@@](Cn6cc(C)nc6C)(c6ccc(Cl)cc6Cl)O5)cc4)CC3)cc2)c1=O` (stereo partly drawn) [Compound 40, 1-(sec-butyl)-4-(4-(4-(4-(((2S,4R)-2-(2,4-dichlorophenyl)-2-((2,4-dimethyl-1H-imidazol-1-yl)methyl)-1,3-dioxolan-4-yl)methoxy)phenyl)piperazin-1-yl)phenyl)-1H-1,2,4-triazol-5(4H)-one], the “Proliferation (IC50/IC50 Itra)” value with HUVEC came out at 3.1. Besides, the “CYP3A4 Inhibition (compared to intracozanole at 1 um)” value on CYP3A4 was 0.45.

`CCC(C)n1ncn(-c2ccc(N3CCN(c4ccc(OC[C@@H]5CO[C@@](Cn6c(C)cnc6C)(c6ccc(Cl)cc6Cl)O5)cc4)CC3)cc2)c1=O` (stereo partly drawn) [Compound 41, 1-(sec-butyl)-4-(4-(4-(4-(((2S,4R)-2-(2,4-dichlorophenyl)-2-((2,5-dimethyl-1H-imidazol-1-yl)methyl)-1,3-dioxolan-4-yl)methoxy)phenyl)piperazin-1-yl)phenyl)-1H-1,2,4-triazol-5(4H)-one]: the “Proliferation (IC50/IC50 Itra)” value with HUVEC is 4.5. Further, in the data set on HUVEC (Homo sapiens, HUVEC), the IC50 was found to be 0.765 µM. The “CYP3A4 Inhibition (compared to intracozanole at 1 um)” value on CYP3A4 amounted to 0.27.

As for `CCc1nccn1C[C@@]1(c2ccc(Cl)cc2Cl)OC[C@@H](COc2ccc(N3CCN(c4ccc(-n5cnn(C(C)CC)c5=O)cc4)CC3)cc2)O1` (stereo partly drawn) [Compound 43, 1-(sec-butyl)-4-(4-(4-(4-(((2S,4R)-2-(2,4-dichlorophenyl)-2-((2-ethyl-1H-imidazol-1-yl)methyl)-1,3-dioxolan-4-yl)methoxy)phenyl)piperazin-1-yl)phenyl)-1H-1,2,4-triazol-5(4H)-one], the “Proliferation (IC50/IC50 Itra)” value in the data set with HUVEC amounted to 1.4. The “CYP3A4 Inhibition (compared to intracozanole at 1 um)” value on CYP3A4 is 0.08.

In the case of `CCC(C)n1ncn(-c2ccc(N3CCN(c4ccc(OC[C@@H]5CO[C@@](Cn6ccnc6C(C)C)(c6ccc(Cl)cc6Cl)O5)cc4)CC3)cc2)c1=O` (stereo partly drawn) [Compound 45, 1-sec-butyl-4-(4-(4-(4-(((2S,4R)-2-(2,4-dichlorophenyl)-2-((2-isopropyl-1H-imidazol-1-yl)methyl)-1,3-dioxolan-4-yl)methoxy)phenyl)piperazin-1-yl)phenyl)-1H-1,2,4-triazol-5(4H)-one], the “Proliferation (IC50/IC50 Itra)” value in the data set with HUVEC is 0.5. The IC50 with HUVEC (Homo sapiens, HUVEC) was determined as 0.084 µM. For the same compound, at CYP3A4, the “CYP3A4 Inhibition (compared to intracozanole at 1 um)” value worked out at 0.07.

For the compound `CCC(C)n1ncn(-c2ccc(N3CCN(c4ccc(OC[C@@H]5CO[C@@](Cn6ccnc6-c6ccccc6)(c6ccc(Cl)cc6Cl)O5)cc4)CC3)cc2)c1=O` (stereo partly drawn) [Compound 46, 1-sec-butyl-4-(4-(4-(4-(((2S,4R)-2-(2,4-dichlorophenyl)-2-((2-phenyl-1H-imidazol-1-yl)methyl)-1,3-dioxolan-4-yl)methoxy)phenyl)piperazin-1-yl)phenyl)-1H-1,2,4-triazol-5(4H)-one], the “Proliferation (IC50/IC50 Itra)” value with HUVEC was 0.8. Moreover, the “CYP3A4 Inhibition (compared to intracozanole at 1 um)” value on CYP3A4 is 0.27.

As for `CCC(C)n1ncn(-c2ccc(N3CCN(c4ccc(OC[C@@H]5CO[C@@](Cn6nc(C)nc6C)(c6ccc(Cl)cc6Cl)O5)cc4)CC3)cc2)c1=O` (stereo partly drawn) [Compound 47, 1-sec-butyl-4-(4-(4-(4-(((2S,4R)-2-(2,4-dichlorophenyl)-2-((3,5-dimethyl-1H-1,2,4-triazol-1-yl)methyl)-1,3-dioxolan-4-yl)methoxy)phenyl)piperazin-1-yl)phenyl)-1H-1,2,4-triazol-5(4H)-one], the “Proliferation (IC50/IC50 Itra)” value in the data set with HUVEC turned out to be 1.3. For the same compound, the IC50 with HUVEC (HUVEC) stood at 0.221 µM. The IC50 in the data set with HUVEC (Homo sapiens, HUVEC) was 0.22 µM. Also, on CYP3A4, the “CYP3A4 Inhibition (compared to intracozanole at 1 um)” value is recorded as 0.32; the “CYP3A4 inhibition, in words” value is on record as “weak inhibition”; the “CYP3A4 inhibition at 1 μM, in words” value was “no CYP3A4 inhibition”.

Take `CCC(C)n1ncn(-c2ccc(N3CCN(c4ccc(OC[C@@H]5CO[C@@](Cn6ncnn6)(c6ccc(Cl)cc6Cl)O5)cc4)CC3)cc2)c1=O` (stereo partly drawn) [Compound 49, 4-(4-(4-(4-(((2S,4R)-2-((2H-tetrazol-2-yl)methyl)-2-(2,4-dichlorophenyl)-1,3-dioxolan-4-yl)methoxy)phenyl)piperazin-1-yl)phenyl)-1-sec-butyl-1H-1,2,4-triazol-5(4H)-one]: the “Proliferation (IC50/IC50 Itra)” value with HUVEC was 0.7. Further, the IC50 in the data set on HUVEC (Homo sapiens, HUVEC) came to 0.124 µM. Further, the “CYP3A4 Inhibition (compared to intracozanole at 1 um)” value at CYP3A4 worked out at 0.2.

In the case of `CCC(C)n1ncn(-c2ccc(N3CCN(c4ccc(OC[C@@H]5CO[C@@](Cn6cnc(C)n6)(c6ccc(Cl)cc6Cl)O5)cc4)CC3)cc2)c1=O` (stereo partly drawn) [Compound 50, 1-sec-butyl-4-(4-(4-(4-(((2S,4R)-2-(2,4-dichlorophenyl)-2-((3-methyl-1H-1,2,4-triazol-1-yl)methyl)-1,3-dioxolan-4-yl)methoxy)phenyl)piperazin-1-yl)phenyl)-1H-1,2,4-triazol-5(4H)-one], in the data set on HUVEC, the “Proliferation (IC50/IC50 Itra)” value stood at 1.6. For the same compound, at CYP3A4, the “CYP3A4 Inhibition (compared to intracozanole at 1 um)” value amounted to 0.36 and the “CYP3A4 inhibition, in words” value was “reduced potency”.

Turning to `CCC(C)n1ncn(-c2ccc(N3CCN(c4ccc(OC[C@@H]5CO[C@@](Cn6cnc(C(F)(F)F)n6)(c6ccc(Cl)cc6Cl)O5)cc4)CC3)cc2)c1=O` (stereo partly drawn) [Compound 51, 1-sec-butyl-4-(4-(4-(4-(((2S,4R)-2-(2,4-dichlorophenyl)-2-((3-(trifluoromethyl)-1H-1,2,4-triazol-1-yl)methyl)-1,3-dioxolan-4-yl)methoxy)phenyl)piperazin-1-yl)phenyl)-1H-1,2,4-triazol-5(4H)-one], in the data set on HUVEC, the “Proliferation (IC50/IC50 Itra)” value was determined as 1.6. For the same compound, on CYP3A4, the “CYP3A4 Inhibition (compared to intracozanole at 1 um)” value was “No inhibition” and the “CYP3A4 inhibition, in words” value is reported as “reduced potency; also recorded: eliminated CYP3A4 inhibition”.

As for `CCC(C)n1ncn(-c2ccc(N3CCN(c4ccc(OC[C@@H]5CO[C@@](Cn6nnnc6C)(c6ccc(Cl)cc6Cl)O5)cc4)CC3)cc2)c1=O` (stereo partly drawn) [Compound 52, 1-sec-butyl-4-(4-(4-(4-(((2S,4R)-2-(2,4-dichlorophenyl)-2-((5-methyl-1H-tetrazol-1-yl)methyl)-1,3-dioxolan-4-yl)methoxy)phenyl)piperazin-1-yl)phenyl)-1H-1,2,4-triazol-5(4H)-one], the “Proliferation (IC50/IC50 Itra)” value in the data set on HUVEC amounted to 0.6. The “CYP3A4 Inhibition (compared to intracozanole at 1 um)” value at CYP3A4 turned out to be 0.08.
